These are literature values, as cited in EP1072609A2, “Cytoprotective agents comprising prosaposin-related peptides” (Sakanaka, Masahiro, priority 1999, dated 2001).

For data set [1], the system named is neurons in the ischemic penumbra of the cerebral cortex. Conditions: intracerebroventricular infusion.
For data set [2] the following is noted: intravenous administration.

Ends that are not written are not given here.

As to `CC(C)=CCC[C@](C)(O[C@@H]1O[C@H](CO[C@@H]2O[C@H](CO)[C@@H](O)[C@H](O)[C@H]2O)[C@@H](O)[C@H](O)[C@H]1O)[C@H]1CC[C@]2(C)[C@@H]1[C@H](O)C[C@@H]1[C@@]3(C)CC[C@H](O[C@@H]4O[C@H](CO)[C@@H](O)[C@H](O)[C@H]4O[C@@H]4O[C@H](CO)[C@@H](O)[C@H](O)[C@H]4O)C(C)(C)[C@@H]3CC[C@]12C` [ginsenoside Rb1], in data set [1], the cortical infarction result was “ameliorate” and the place navigation disability entry is listed as “ameliorate”. Besides, in the data set on Bcl-xL, the “expression of Bcl-xL” value was “stimulates”.

As to LSELIINNATEELLIKGL [18-MP], the “share of intravenously administered peptide transferred into the brain” value in data set [2] was “approximately 0.03%”.
